Among the data in BindingDB's records for doi:10.1016/j.bmcl.2018.05.027 (Bristol-Myers Squibb Research and Development, 2018) are EC50 values, retold here.

Test [1] can be described thus: Inhibition of HIV-1 integrase strand transfer activity assessed as reduction in viral replication in presence of 10% fetal bovine serum.
Test [2] in a line: Inhibition of HIV-1 integrase strand transfer activity assessed as reduction in viral replication in presence of 10% fetal bovine serum and 15 mg/mL human serum albumin.
Test [3] is described as follows: Inhibition of HIV-1 integrase strand transfer activity assessed as reduction in viral replication in presence of 40% human serum.

As to `CN(C)S(=O)(=O)c1cc(F)ccc1CNC(=O)c1nc2n(c(=O)c1O)CCCC21CCCC1`, the EC50 (usually the concentration needed to bring the measured effect to its halfway point) in test [1] is 3 nM; in test [2] it was 27 nM.

As for `O=C(NCc1ccc(F)cc1)c1nc2n(c(=O)c1O)CCCC21CCCC1`, the EC50 stood at 2 nM in test [1] and 19 nM in test [2].

For the compound `CC1(C)OCCn2c1nc(C(=O)NCc1ccc(F)cc1Cl)c(O)c2=O`, the values for the EC50 in test [1] and in test [2] were 53 nM and 857 nM, respectively.

With `Cc1cc(CNC(=O)c2nc3n(c(=O)c2O)CCOC3(C)C)ccc1F`, the EC50 in test [1] was 1 nM; in test [2] it was 90 nM.

For the compound `Cc1cc(F)ccc1CNC(=O)c1nc2n(c(=O)c1O)CCOC2(C)C`, the EC50 in test [1] came out at 21 nM; in test [2] it was 557 nM.

Regarding `CC1(C)OCCn2c1nc(C(=O)NCc1ccc(F)c(Cl)c1)c(O)c2=O`, the EC50 in test [1] is 2 nM; in test [2], 84 nM.

In the case of `CC1(C)OCCn2c1nc(C(=O)NCc1ccc(F)cc1)c(O)c2=O`, the EC50 is 25 nM in test [3], 2 nM in test [1] and 17 nM in test [2].

As for `O=C(NCc1ccc(F)cc1N1CCCCS1(=O)=O)c1nc2n(c(=O)c1O)CCCC21CCCC1`, the EC50 was determined as 2 nM in test [1] and 21 nM in test [2].

On to `O=C(NCc1ccc(F)cc1S(=O)(=O)N1CCOCC1)c1nc2n(c(=O)c1O)CCCC21CCCC1`, for which the EC50 in test [1] amounted to 3 nM; in test [2], 14 nM.

Turning to `CS(=O)(=O)c1cc(F)ccc1CNC(=O)c1nc2n(c(=O)c1O)CCCC21CCCC1`, the EC50 in test [1] stood at 1 nM; in test [2] it was 8 nM.

`Cc1cc(CNC(=O)c2nc3n(c(=O)c2O)CCCC32CCCC2)ccc1F`: the EC50 in test [1] is 5 nM; in test [2] it was 149 nM.

With `CC1(C)OCCn2c1nc(C(=O)NCc1ccc(F)cc1N1CCCCS1(=O)=O)c(O)c2=O`, the EC50 in test [1] was 2 nM; in test [2] it was 7 nM.

Consider `CN(C)S(=O)(=O)c1c(CNC(=O)c2nc3n(c(=O)c2O)CCOC3(C)C)ccc(F)c1F`, for which the EC50 in test [1] was 3 nM; in test [2], 12 nM.

In the case of `CC1(C)OCCn2c1nc(C(=O)NCc1ccc(F)cc1S(C)(=O)=O)c(O)c2=O`, the EC50 was determined as 3 nM in test [1] and 6 nM in test [2].

Consider `CNC(=O)c1cc(F)ccc1CNC(=O)c1nc2n(c(=O)c1O)CCOC2(C)C`, for which the EC50 in test [1] came out at 2 nM; in test [2], 3 nM.

Consider `CC1(C)OCCn2c1nc(C(=O)NCc1ccc(F)cc1N1CCOCC1)c(O)c2=O`, for which the EC50 in test [1] is 2 nM; in test [2] it was 19 nM.
